Earlier results, collected in patent publication US20170027865A1, “Dry Pharmaceutical Compositions for Topical Delivery of Oral Medications, Nasal Delivery and to Treat Ear Disorders” (CMPD LICENSING LLC, priority 2013, published 2017).

What was measured:
[1] = test system: Candida species
[2] = test system: Streptococcus pyogenes; settings: Gram: pos
[3] = test system: Corynebacterium jeikeium; settings: Gram: pos
[4] = test system: Klebsiella (Calymmatobacterium) granulomatis; settings: Gram: neg
[5] = test system: Haemophilus influenzae; settings: Gram: neg
[6] = test system: Viridans group streptococci; settings: Gram: pos
[7] = test system: Escherichia coli; settings: Gram: neg
[8] = test system: Acinetobacter calcoaceticus; settings: Gram: neg
[9] = test system: Citrobacter diversus; settings: Gram: neg
[10] = test system: Staphylococcus epidermidis; settings: Gram: pos
[11] = test system: Moraxella catarrhalis; settings: Gram: neg
[12] = test system: Chlamydia psittaci; settings: Chlamydia psittaci; Gram: n/a
[13] = test system: Serratia marcescens; settings: Gram: neg
[14] = test system: Corynebacterium urealyticum; settings: Gram: pos
[15] = test system: Citrobacter freundii; settings: Gram: neg
[16] = test system: Acinetobacter lwoffii; settings: Gram: neg
[17] = test system: Staphylococcus aureus (MSSA); settings: Gram: pos
[18] = test system: Shigella boydii; settings: Gram: neg
[19] = test system: Yersinia pestis; settings: Yersinia pestis; Gram: neg
[20] = test system: Enterobacter aerogenes; settings: Gram: neg
[21] = test system: Enterococcus faecium; settings: Gram: pos
[22] = test system: Mycoplasma pneumoniae; settings: Gram: n/a
[23] = test system: Clostridium difficile; settings: Gram: anaer
[24] = test system: Bacteroides fragilis; settings: Gram: anaer
[25] = test system: Neisseria meningitidis; settings: Gram: neg
[26] = test system: Shigella dysenteriae; settings: Gram: neg
[27] = test system: Proteus vulgaris; settings: Gram: neg
[28] = test system: Shigella sonnei; settings: Gram: neg
[29] = test system: Peptostreptococcus; settings: Gram: pos
[30] = test system: Haemophilus ducreyi; settings: Gram: neg
[31] = test system: Acinetobacter baumannii; settings: Gram: neg
[32] = test system: Enterococcus faecalis; settings: Gram: pos
[33] = test system: Pseudomonas fluorescens; settings: Gram: neg
[34] = test system: Legionella pneumophila; settings: Legionella pneumophila; Gram: neg
[35] = test system: Klebsiella oxytoca; settings: Gram: neg
[36] = test system: Chlamydia pneumoniae; settings: Gram: n/a
[37] = test system: Chlamydia trachomatis; settings: Gram: n/a
[38] = test system: Diphtheroids; settings: Gram: pos
[39] = test system: Streptococcus agalactiae; settings: Gram: pos
[40] = test system: Enterobacter sakazakii; settings: Gram: neg
[41] = test system: Campylobacter jejuni; settings: Gram: neg
[42] = test system: Neisseria gonorrhoeae; settings: Gram: neg
[43] = test system: Enterobacter cloacae; settings: Gram: neg
[44] = test system: Bordetella pertussis; settings: Gram: neg
[45] = test system: Clostridium perfringens; settings: Clostridium perfringens; Gram: anaer
[46] = test system: Vibrio cholerae; settings: Gram: neg
[47] = test system: Pseudomonas aeruginosa; settings: Gram: neg
[48] = test system: Methicillin Resistant Staph aureus (MRSA); settings: Gram: pos
[49] = test system: Klebsiella pneumoniae; settings: Gram: neg
[50] = test system: Streptococcus pneumoniae; settings: Gram: pos
[51] = test system: Proteus mirabilis; settings: Gram: neg
[52] = test system: Shigella flexneri; settings: Gram: neg
[53] = test system: Providencia stuartii; settings: Gram: neg
[54] = test system: Haemophilus parainfluenzae; settings: Gram: neg
[55] = test system: Providencia rettgeri; settings: Gram: neg
[56] = test system: Brucella species; settings: Brucella species; Gram: neg
[57] = test system: Rickettsiae; settings: Rickettsiae; Gram: neg
[58] = test system: Francisella tularensis; settings: Francisella tularensis; Gram: neg
[59] = test system: Bartonella bacilliformis; settings: Gram: neg
[60] = test system: Morganella morganii; settings: Gram: neg

Molecule: C[C@@H]1[C@H](O)[C@@H](C)/C=C/C=C/CC/C=C/C=C/C=C/C=C/C(O[C@H]2O[C@H](C)[C@@H](O)[C@H](N)[C@@H]2O)CC2O[C@](O)(CC(O)C(O)CCC(O)CC(O)CC(O)CC(=O)O[C@H]1C)CC(O)C2C(=O)O (some centres unmarked) [Nystatin, nystatin]
- Expected coverage [1]: yes

Molecule: NC[C@H]1O[C@H](O[C@H]2[C@H](O)[C@@H](O[C@H]3O[C@H](CO)[C@@H](O)[C@H](N)[C@H]3O)[C@H](N)C[C@@H]2N)[C@H](N)C[C@@H]1O [Tobramycin, tobramycin]
- Expected coverage [2]: no
- Expected coverage [3]: no
- Expected coverage [4]: yes
- Expected coverage [5]: yes
- Expected coverage [6]: no
- Expected coverage [7]: yes
- Expected coverage [8]: no
- Expected coverage [9]: yes
- Expected coverage [10]: no
- Expected coverage [11]: yes
- Expected coverage [12]: no
- Expected coverage [13]: yes
- Expected coverage [14]: no
- Expected coverage [15]: yes
- Expected coverage [16]: no
- Expected coverage [17]: no
- Expected coverage [18]: yes
- Expected coverage [19]: yes
- Expected coverage [20]: yes
- Expected coverage [21]: no
- Expected coverage [22]: no
- Expected coverage [23]: no
- Expected coverage [24]: no
- Expected coverage [25]: no
- Expected coverage [26]: yes
- Expected coverage [27]: yes
- Expected coverage [28]: yes
- Expected coverage [29]: no
- Expected coverage [30]: yes
- Expected coverage [31]: no
- Expected coverage [32]: no
- Expected coverage [33]: yes
- Expected coverage [34]: no
- Expected coverage [35]: yes
- Expected coverage [36]: no
- Expected coverage [37]: no
- Expected coverage [38]: no
- Expected coverage [39]: no
- Expected coverage [40]: yes
- Expected coverage [41]: yes
- Expected coverage [42]: no
- Expected coverage [43]: yes
- Expected coverage [44]: no
- Expected coverage [45]: no
- Expected coverage [46]: no
- Expected coverage [47]: yes
- Expected coverage [48]: no
- Expected coverage [49]: yes
- Expected coverage [50]: no
- Expected coverage [51]: yes
- Expected coverage [52]: yes

Molecule: colistimethate
- Expected coverage [2]: no
- Expected coverage [3]: no
- Expected coverage [4]: yes
- Expected coverage [6]: no
- Expected coverage [7]: yes
- Expected coverage [10]: no
- Expected coverage [11]: no
- Expected coverage [12]: no
- Expected coverage [13]: no
- Expected coverage [14]: no
- Expected coverage [17]: no
- Expected coverage [53]: no
- Expected coverage [20]: yes
- Expected coverage [21]: no
- Expected coverage [22]: no
- Expected coverage [23]: no
- Expected coverage [24]: no
- Expected coverage [25]: no
- Expected coverage [27]: no
- Expected coverage [29]: no
- Expected coverage [32]: no
- Expected coverage [33]: yes
- Expected coverage [34]: no
- Expected coverage [35]: yes
- Expected coverage [36]: no
- Expected coverage [37]: no
- Expected coverage [38]: no
- Expected coverage [39]: no
- Expected coverage [40]: yes
- Expected coverage [42]: no
- Expected coverage [43]: yes
- Expected coverage [44]: no
- Expected coverage [46]: no
- Expected coverage [47]: yes
- Expected coverage [54]: no
- Expected coverage [48]: no
- Expected coverage [49]: yes
- Expected coverage [50]: no
- Expected coverage [51]: no
- Expected coverage [55]: no
- Expected coverage [56]: no

Molecule: CC[C@H]1OC(=O)[C@H](C)[C@@H](O[C@H]2C[C@@](C)(OC)[C@@H](O)[C@H](C)O2)[C@H](C)[C@@H](O[C@@H]2O[C@H](C)C[C@H](N(C)C)[C@H]2O)[C@](C)(O)C[C@@H](C)CN(C)[C@H](C)[C@@H](O)[C@]1(C)O [Azithromycin, azithromycin]
- Expected coverage [2]: yes
- Expected coverage [3]: no
- Expected coverage [4]: no
- Expected coverage [5]: yes
- Expected coverage [7]: no
- Expected coverage [57]: yes
- Expected coverage [8]: no
- Expected coverage [9]: no
- Expected coverage [10]: yes
- Expected coverage [11]: yes
- Expected coverage [12]: yes
- Expected coverage [13]: no
- Expected coverage [15]: no
- Expected coverage [16]: no
- Expected coverage [17]: yes
- Expected coverage [53]: no
- Expected coverage [20]: no
- Expected coverage [21]: no
- Expected coverage [22]: yes
- Expected coverage [23]: no
- Expected coverage [24]: no
- Expected coverage [25]: yes
- Expected coverage [27]: no
- Expected coverage [58]: no
- Expected coverage [31]: no
- Expected coverage [32]: no
- Expected coverage [33]: no
- Expected coverage [34]: yes
- Expected coverage [35]: no
- Expected coverage [36]: yes
- Expected coverage [37]: yes
- Expected coverage [39]: yes
- Expected coverage [59]: yes
- Expected coverage [40]: no
- Expected coverage [41]: yes
- Expected coverage [43]: no
- Expected coverage [60]: no
- Expected coverage [44]: yes
- Expected coverage [45]: no
- Expected coverage [46]: yes
- Expected coverage [47]: no
- Expected coverage [48]: no
- Expected coverage [49]: no
- Expected coverage [50]: yes
- Expected coverage [51]: no
- Expected coverage [55]: no
- Expected coverage [56]: no
